{"source": "ChEMBL document CHEMBL4765450", "about": "“The components and activities analysis of a novel anticoagulant candidate dHG-5” (Eur J Med Chem, 2020)", "key": {"[1]": {"biological_target": "Prothrombin (Homo sapiens) (UniProt P00734)", "assay": "Inhibition of factor 2a (unknown origin) at IC50 preincubated for 1 min followed by chromogenic substrate addition and measured for 2 mins", "settings": "time 3.0 min"}, "[2]": {"biological_target": "T1, Coagulation factor VII (Homo sapiens) (UniProt P08709)", "T1 sequence (whole entry)": "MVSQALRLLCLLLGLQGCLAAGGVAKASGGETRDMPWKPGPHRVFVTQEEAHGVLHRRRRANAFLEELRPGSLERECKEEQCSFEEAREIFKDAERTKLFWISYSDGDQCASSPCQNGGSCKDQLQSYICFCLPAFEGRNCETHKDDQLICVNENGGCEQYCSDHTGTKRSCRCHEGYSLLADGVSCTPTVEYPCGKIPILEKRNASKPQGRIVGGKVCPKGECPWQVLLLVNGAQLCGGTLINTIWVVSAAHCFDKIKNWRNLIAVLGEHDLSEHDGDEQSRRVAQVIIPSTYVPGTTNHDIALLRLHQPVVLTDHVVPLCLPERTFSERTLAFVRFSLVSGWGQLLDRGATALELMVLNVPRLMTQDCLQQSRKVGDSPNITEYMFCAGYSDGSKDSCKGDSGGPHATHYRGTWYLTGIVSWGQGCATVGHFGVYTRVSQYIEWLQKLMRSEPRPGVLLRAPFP", "assay": "Inhibition of factor 7a (unknown origin) at IC50 using pefachrome factor VIIa as substrate preincubated for 1 min followed by chromogenic substrate addition and measured for 2 mins", "settings": "time 3.0 min"}, "[3]": {"biological_target": "Coagulation factor X (Homo sapiens) (UniProt P00742)", "sequence (P00742 41-179 limits assumed)": "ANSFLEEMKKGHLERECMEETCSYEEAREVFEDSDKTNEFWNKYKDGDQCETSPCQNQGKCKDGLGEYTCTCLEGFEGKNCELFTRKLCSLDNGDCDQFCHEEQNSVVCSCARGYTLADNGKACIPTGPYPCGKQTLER", "sequence (P00742 235-488 limits assumed)": "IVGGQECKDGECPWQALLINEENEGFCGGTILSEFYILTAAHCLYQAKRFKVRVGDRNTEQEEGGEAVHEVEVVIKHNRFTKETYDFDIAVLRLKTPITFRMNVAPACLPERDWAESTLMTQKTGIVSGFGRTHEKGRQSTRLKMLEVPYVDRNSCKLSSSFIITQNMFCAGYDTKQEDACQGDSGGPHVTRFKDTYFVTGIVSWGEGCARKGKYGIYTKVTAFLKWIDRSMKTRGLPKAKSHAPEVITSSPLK", "assay": "Inhibition of factor 10a (unknown origin) at IC50 preincubated for 1 min followed by chromogenic substrate addition and measured for 2 mins", "settings": "time 3.0 min"}, "[4]": {"biological_target": "Coagulation factor XI (Homo sapiens) (UniProt P03951)", "sequence (P03951 19-387 limits assumed)": "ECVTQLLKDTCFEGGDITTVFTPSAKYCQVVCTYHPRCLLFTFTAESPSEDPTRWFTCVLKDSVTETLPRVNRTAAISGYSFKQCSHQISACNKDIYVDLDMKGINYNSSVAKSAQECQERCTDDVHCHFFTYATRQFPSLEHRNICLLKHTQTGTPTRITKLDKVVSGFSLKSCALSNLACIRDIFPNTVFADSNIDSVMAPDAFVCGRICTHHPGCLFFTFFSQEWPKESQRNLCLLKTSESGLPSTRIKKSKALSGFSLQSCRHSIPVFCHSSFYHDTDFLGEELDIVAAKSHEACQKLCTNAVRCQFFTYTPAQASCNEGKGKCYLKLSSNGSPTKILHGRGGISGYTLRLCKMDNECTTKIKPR", "sequence (P03951 388-625 limits assumed)": "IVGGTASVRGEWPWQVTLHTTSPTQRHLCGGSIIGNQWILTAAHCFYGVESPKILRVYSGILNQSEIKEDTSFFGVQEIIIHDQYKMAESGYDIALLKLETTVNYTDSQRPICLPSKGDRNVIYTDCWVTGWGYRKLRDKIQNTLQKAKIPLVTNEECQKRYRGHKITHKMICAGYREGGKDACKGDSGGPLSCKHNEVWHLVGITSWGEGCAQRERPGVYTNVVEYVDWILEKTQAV", "assay": "Inhibition of factor 11a (unknown origin) at IC50 using S-2366 as substrate preincubated for 1 min followed by chromogenic substrate addition and measured for 2 mins", "settings": "time 3.0 min"}, "[5]": {"biological_target": "T2, Coagulation factor XII (Homo sapiens) (UniProt P00748)", "T2 sequence (whole entry)": "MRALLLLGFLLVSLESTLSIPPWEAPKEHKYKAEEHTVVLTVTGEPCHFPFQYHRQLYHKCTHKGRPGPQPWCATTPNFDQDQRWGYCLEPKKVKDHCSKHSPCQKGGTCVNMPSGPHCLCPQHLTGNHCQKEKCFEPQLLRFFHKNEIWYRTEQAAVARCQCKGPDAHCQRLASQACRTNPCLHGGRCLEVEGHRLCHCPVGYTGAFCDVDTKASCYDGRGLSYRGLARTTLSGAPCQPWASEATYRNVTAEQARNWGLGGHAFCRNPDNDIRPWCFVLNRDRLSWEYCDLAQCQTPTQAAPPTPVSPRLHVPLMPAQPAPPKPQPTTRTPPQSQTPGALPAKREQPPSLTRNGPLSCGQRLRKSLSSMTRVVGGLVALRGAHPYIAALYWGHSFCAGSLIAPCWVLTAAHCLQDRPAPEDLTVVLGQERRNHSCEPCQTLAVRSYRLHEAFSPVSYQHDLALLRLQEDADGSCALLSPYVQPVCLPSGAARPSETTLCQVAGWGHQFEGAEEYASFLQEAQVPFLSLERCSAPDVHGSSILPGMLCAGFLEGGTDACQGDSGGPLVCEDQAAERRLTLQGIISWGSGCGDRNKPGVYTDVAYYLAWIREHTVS", "assay": "Inhibition of factor 12a (unknown origin) at IC50 using kallikrein chromogenic substrate preincubated for 1 min followed by chromogenic substrate addition and measured for 2 mins", "settings": "time 3.0 min"}, "[6]": {"biological_target": "Prothrombin (Homo sapiens) (UniProt P00734)", "assay": "Inhibition of factor 2a (unknown origin) at IC50 preincubated for 1 min followed by chromogenic substrate addition and measured for 2 mins in presence of AT-III", "settings": "time 3.0 min"}, "[7]": {"biological_target": "T1, Coagulation factor VII (Homo sapiens)", "assay": "Inhibition of factor 7a (unknown origin) at IC50 using pefachrome factor VIIa as substrate preincubated for 1 min followed by chromogenic substrate addition and measured for 2 mins in presence of AT-III", "settings": "time 3.0 min"}, "[8]": {"biological_target": "Coagulation factor X (Homo sapiens) (UniProt P00742)", "assay": "Inhibition of factor 10a (unknown origin) at IC50 preincubated for 1 min followed by chromogenic substrate addition and measured for 2 mins in presence of AT-III", "settings": "time 3.0 min"}, "[9]": {"biological_target": "Coagulation factor XI (Homo sapiens) (UniProt P03951)", "assay": "Inhibition of factor 11a (unknown origin) at IC50 using S-2366 as substrate preincubated for 1 min followed by chromogenic substrate addition and measured for 2 mins in presence of AT-III", "settings": "time 3.0 min"}, "[10]": {"biological_target": "T2, Coagulation factor XII (Homo sapiens)", "assay": "Inhibition of factor 12a (unknown origin) at IC50 using kallikrein chromogenic substrate preincubated for 1 min followed by chromogenic substrate addition and measured for 2 mins in presence of AT-III", "settings": "time 3.0 min"}, "[11]": {"biological_target": "Prothrombin (Homo sapiens) (UniProt P00734)", "assay": "Inhibition of factor 2a (unknown origin) at IC90 preincubated for 1 min followed by chromogenic substrate addition and measured for 2 mins in presence of AT-III", "settings": "time 3.0 min"}, "[12]": {"biological_target": "Coagulation factor XI (Homo sapiens) (UniProt P03951)", "assay": "Inhibition of factor 11a (unknown origin) at IC90 using S-2366 as substrate preincubated for 1 min followed by chromogenic substrate addition and measured for 2 mins in presence of AT-III", "settings": "time 3.0 min"}, "[13]": {"biological_target": "Coagulation factor X (Homo sapiens) (UniProt P00742)", "assay": "Inhibition of factor 10a (unknown origin) at IC90 preincubated for 1 min followed by chromogenic substrate addition and measured for 2 mins in presence of AT-III relative to control", "settings": "time 3.0 min"}, "Plasma [14]": {"system": "Plasma", "assay": "(§1) Anticoagulation activity in human plasma assessed as drug level causing 20 times doubling of APTT preincubated for 2 mins followed by APTT reagent and measured after 3 mins by coagulometric method relative to dHG-5", "format": "functional", "settings": "time 5 min"}, "[15]": {"biological_target": "T3, Coagulation factor IX/VIII (Homo sapiens) (UniProt P00740+P00451)", "assay": "(§2) Inhibition of human citrated plasma iXase (factor 8a-factor 9a complex) preincubated for 2 mins followed by factor 10 addition and measured after 1 min by FXa chromogenic substrate SXa-11 based assay relative to dHG-5", "format": "protein-complex assay", "settings": "time 3.0 min"}, "Coagulation factor IX [16]": {"biological_target": "T4, Coagulation factor IX (Homo sapiens, UniProt P00740)", "T4 sequence (P00740 47-191 limits assumed)": "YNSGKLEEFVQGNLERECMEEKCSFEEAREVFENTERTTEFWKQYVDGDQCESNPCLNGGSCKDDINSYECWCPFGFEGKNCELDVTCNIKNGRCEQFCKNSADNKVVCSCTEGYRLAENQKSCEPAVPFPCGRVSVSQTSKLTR", "T4 sequence (P00740 227-461 limits assumed)": "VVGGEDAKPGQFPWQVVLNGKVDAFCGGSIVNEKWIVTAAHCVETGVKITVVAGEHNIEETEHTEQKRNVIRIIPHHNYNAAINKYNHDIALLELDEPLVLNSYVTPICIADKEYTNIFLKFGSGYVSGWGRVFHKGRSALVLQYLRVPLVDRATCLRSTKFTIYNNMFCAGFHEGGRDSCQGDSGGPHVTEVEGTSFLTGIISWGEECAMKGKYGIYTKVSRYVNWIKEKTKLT", "assay": "Inhibition of factor 9a (unknown origin) binding to immobilized biotinylated oHG-11 by biolayer interferometry relative to dHG-5"}, "Rattus norvegicus [17]": {"system": "Rattus norvegicus", "assay": "(§3) Antithrombotic activity in thromboplastin and stasis-induced Sprague-Dawley rat deep venous thrombosis model assessed as reduction in venous thrombosis at 1.84 mg/kg, sc administered 1 hr prior to thromboplastin addition for 20 secs followed by establishment of stasis for 20 mins relative to dHG-5", "format": "functional", "settings": "time 80.33 min, 1.339 h"}, "Plasma [18]": {"system": "Plasma", "assay": "as §1, with “of APTT by measuring activity potency of oligosaccharides multiplied by the percentage of oligosaccharides in dHG-5 preincubated for” for “of APTT preincubated for”", "format": "functional", "settings": "time 5 min"}, "[19]": {"biological_target": "T3, Coagulation factor IX/VIII (Homo sapiens)", "assay": "as §2, with “complex) assessed as activity potency of oligosaccharides multiplied by the percentage of oligosaccharides in dHG-5” for “complex)”", "format": "protein-complex assay", "settings": "time 3.0 min"}, "Coagulation factor IX [20]": {"biological_target": "T4, Coagulation factor IX", "assay": "Inhibition of factor 9a (unknown origin) binding to immobilized biotinylated oHG-11 assessed as activity potency of oligosaccharides multiplied by the percentage of oligosaccharides in dHG-5 by biolayer interferometry relative to dHG-5"}, "Rattus norvegicus [21]": {"system": "Rattus norvegicus", "assay": "as §3, with “venous thrombosis by measuring activity potency of oligosaccharides multiplied by the percentage of oligosaccharides in dHG-5 at 1.84” for “venous thrombosis at 1.84”", "format": "functional", "settings": "time 80.33 min, 1.339 h"}}, "note": "The source made the active and inactive calls. No cut-off for these calls is given here."}
{"compound": "CC(=O)N[C@H]1[C@H](O[C@@H]([C@H](O[C@@H]2O[C@@H](C)[C@@H](OS(=O)(=O)[O-])[C@@H](OS(=O)(=O)O)[C@@H]2O)[C@@H](O)CO)[C@H](O)C(=O)[O-])O[C@H](COS(=O)(=O)[O-])[C@H](OS(=O)(=O)[O-])[C@@H]1O[C@@H]1O[C@H](C(=O)[O-])[C@@H](O[C@@H]2O[C@H](COS(=O)(=O)[O-])[C@H](OS(=O)(=O)[O-])[C@H](O[C@@H]3O[C@H](C(=O)[O-])[C@@H](O[C@@H]4O[C@H](COS(=O)(=O)[O-])[C@H](OS(=O)(=O)[O-])[C@H](O[C@@H]5O[C@H](C(=O)[O-])[C@@H](O[C@@H]6O[C@H](COS(=O)(=O)[O-])[C@H](OS(=O)(=O)[O-])[C@H](O[C@@H]7O[C@H](C(=O)[O-])[C@@H](O[C@@H]8O[C@H](COS(=O)(=O)[O-])[C@H](OS(=O)(=O)[O-])[C@H](O[C@@H]9O[C@H](C(=O)[O-])[C@@H](O[C@@H]%10O[C@H](COS(=O)(=O)[O-])[C@H](OS(=O)(=O)[O-])[C@H](O[C@@H]%11OC(C(=O)[O-])=C[C@H](O[C@@H]%12O[C@@H](C)[C@@H](OS(=O)(=O)[O-])[C@@H](OS(=O)(=O)O)[C@@H]%12O)[C@H]%11O)[C@H]%10NC(C)=O)[C@H](O[C@@H]%10O[C@@H](C)[C@@H](OS(=O)(=O)[O-])[C@@H](OS(=O)(=O)O)[C@@H]%10O)[C@H]9O)[C@H]8NC(C)=O)[C@H](O[C@@H]8O[C@@H](C)[C@@H](OS(=O)(=O)[O-])[C@@H](OS(=O)(=O)O)[C@@H]8O)[C@H]7O)[C@H]6NC(C)=O)[C@H](O[C@@H]6O[C@@H](C)[C@@H](OS(=O)(=O)[O-])[C@@H](OS(=O)(=O)O)[C@@H]6O)[C@H]5O)[C@H]4NC(C)=O)[C@H](O[C@@H]4O[C@@H](C)[C@@H](OS(=O)(=O)[O-])[C@@H](OS(=O)(=O)O)[C@@H]4O)[C@H]3O)[C@H]2NC(C)=O)[C@H](O[C@@H]2O[C@@H](C)[C@@H](OS(=O)(=O)[O-])[C@@H](OS(=O)(=O)O)[C@@H]2O)[C@H]1O.[Na+].[Na+].[Na+].[Na+].[Na+].[Na+].[Na+].[Na+].[Na+].[Na+].[Na+].[Na+].[Na+].[Na+].[Na+].[Na+].[Na+].[Na+].[Na+].[Na+].[Na+].[Na+].[Na+].[Na+].[Na+].[Na+]", "values": [{"measurement": "inhibition", "setting": "[1]", "result": "inactive"}, {"measurement": "inhibition (active/not active)", "setting": "[2]", "result": "inactive"}, {"measurement": "inhibition", "setting": "[3]", "result": "inactive"}, {"measurement": "inhibition", "setting": "[4]", "result": "inactive"}, {"measurement": "inhibition", "setting": "[5]", "result": "inactive"}, {"measurement": "inhibition", "setting": "[6]", "result": "inactive"}, {"measurement": "inhibition", "setting": "[7]", "result": "inactive"}, {"measurement": "inhibition", "setting": "[8]", "result": "inactive"}, {"measurement": "inhibition", "setting": "[9]", "result": "inactive"}, {"measurement": "inhibition", "setting": "[10]", "result": "inactive"}, {"measurement": "inhibition", "setting": "[11]", "result": "Active"}, {"measurement": "inhibition", "setting": "[12]", "result": "Active"}, {"measurement": "inhibition", "setting": "[13]", "result": "inactive"}, {"measurement": "Ratio", "setting": "Plasma [14]", "result": 203.41, "unit": "U"}, {"measurement": "Ratio", "setting": "[15]", "result": 217, "unit": "U"}, {"measurement": "Ratio", "setting": "Coagulation factor IX [16]", "result": 116, "unit": "U"}, {"measurement": "Ratio", "setting": "Rattus norvegicus [17]", "result": 213.7, "unit": "U"}, {"measurement": "Ratio", "setting": "Plasma [18]", "result": 22.82, "unit": "U"}, {"measurement": "Ratio", "setting": "[19]", "result": 24.4, "unit": "U"}, {"measurement": "Ratio", "setting": "Coagulation factor IX [20]", "result": 13.1, "unit": "U"}, {"measurement": "Ratio", "setting": "Rattus norvegicus [21]", "result": 23.93, "unit": "U"}]}
